Data: ChEMBL document CHEMBL1201862, “PubChem BioAssay data set” (2004)
Active and inactive are the calls of the source.

Assays:
[1] = target: Voltage-dependent T-type calcium channel subunit alpha-1H (Homo sapiens, UniProt O95180); format: functional;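 further: channel activity triggered by adding a high calcium stimulation buffer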
[2] = target: T1, Polyadenylate-binding protein 1 (Homo sapiens, UniProt P11940); assay: MLLE binding blockers, Cy5 peptide tracer – biochemical, fluorescence polarization, Cy5-PAM2 peptide, secondary, miRNA deadenylation inhibitor project, dose response (AID 602260); format: functional; conditions: read-out: IC50_Mean
[3] = target: T1, Polyadenylate-binding protein 1; assay: MLLE domain peptide-binding blockers, IC50 – biochemical, fluorescence polarization, FITC-PAM2 peptide, dose response (AID 602259); format: functional; conditions: read-out: IC50_Mean
[4] = target: T2, Calpain-2 catalytic subunit (Sus scrofa, UniProt P43367); assay: m-calpain protease blockers, concentration series – biochemical, fluorogenic peptide substrate, dose response (AID 1420); format: functional
T2 sequence (P43367 whole entry): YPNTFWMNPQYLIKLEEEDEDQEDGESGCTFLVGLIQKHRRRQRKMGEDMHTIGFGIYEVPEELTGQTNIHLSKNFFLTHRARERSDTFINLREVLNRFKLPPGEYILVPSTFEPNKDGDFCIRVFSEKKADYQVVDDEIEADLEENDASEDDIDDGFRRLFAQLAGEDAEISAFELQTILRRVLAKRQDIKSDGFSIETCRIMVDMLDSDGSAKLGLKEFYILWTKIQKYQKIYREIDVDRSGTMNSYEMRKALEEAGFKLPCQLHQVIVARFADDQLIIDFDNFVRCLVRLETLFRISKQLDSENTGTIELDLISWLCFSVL

Cytochrome P450 2C9 = Cytochrome P450 2C9 (Homo sapiens, UniProt P11712)
Cytochrome P450 2D6 = Cytochrome P450 2D6 (Homo sapiens, UniProt P10635);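 further: CYP2D6 member of a cytochrome P450 panel assay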
Cytochrome P450 3A4 = Cytochrome P450 3A4 (Homo sapiens, UniProt P08684);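 further: CYP3A4 tested as one member of a cytochrome P450 panel screen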
[5] = NIH3T3 cell viability loss – ATP luminescence, mouse fibroblasts, counter-screen, dose response (AID 2010); format: functional, cell-based;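 further: cells exposed to compound for about 90 hours before reading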
[6] = Trypanosoma cruzi growth suppression in host cells – NIH3T3 host cells, beta-gal luminescence, confirmation (AID 2044); format: functional, cell-based;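 further: intracellular parasites grown in NIH/3T3 mouse fibroblasts as host cells; luminescent beta-galactosidase reporter signal from transgenic T. cruzi replicating inside host cells; inhibitors lower the luminescence signal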
[7] = target: T3, Corticotropin-releasing factor receptor 2/Corticotropin-releasing factor-binding protein (Homo sapiens, UniProt P24387+Q13324); assay: activators of CRF receptor 2 with binding protein – uHTS hits, confirmation (AID 602473); format: functional; conditions: read-out: EC50_Mean
T3 sequence (Q13324 whole entry): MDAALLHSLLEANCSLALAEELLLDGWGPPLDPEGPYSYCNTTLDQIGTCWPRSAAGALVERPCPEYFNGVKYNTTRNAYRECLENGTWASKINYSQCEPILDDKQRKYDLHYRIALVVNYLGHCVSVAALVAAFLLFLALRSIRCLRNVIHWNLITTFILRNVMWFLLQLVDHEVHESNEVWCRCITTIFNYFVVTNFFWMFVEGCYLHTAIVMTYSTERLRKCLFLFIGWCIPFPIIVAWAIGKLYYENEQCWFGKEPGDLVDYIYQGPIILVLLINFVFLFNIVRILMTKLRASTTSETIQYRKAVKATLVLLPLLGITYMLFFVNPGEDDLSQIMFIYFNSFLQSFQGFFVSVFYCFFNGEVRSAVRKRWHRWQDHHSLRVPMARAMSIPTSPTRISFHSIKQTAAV
T3 sequence (P24387 whole entry): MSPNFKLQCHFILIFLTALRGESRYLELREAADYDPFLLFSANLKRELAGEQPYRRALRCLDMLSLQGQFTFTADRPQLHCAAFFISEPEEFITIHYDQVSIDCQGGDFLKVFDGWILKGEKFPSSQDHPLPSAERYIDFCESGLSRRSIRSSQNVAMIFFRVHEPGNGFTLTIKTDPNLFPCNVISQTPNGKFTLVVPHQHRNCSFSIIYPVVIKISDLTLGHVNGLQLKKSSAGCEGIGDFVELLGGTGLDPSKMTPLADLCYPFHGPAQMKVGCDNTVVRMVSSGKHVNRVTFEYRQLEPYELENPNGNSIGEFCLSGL

Streptococcus = assay: GAS UMAA2166 growth inhibition – luminescence, BacTiterGlo, counter-screen for streptokinase expression inhibitor project, dose response (AID 1915); format: functional, organism-based;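 further: potency for reduction of bacterial viability or growth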
[8] = tested on: Streptococcus sp. 'group A'; assay: Streptococcus pyogenes SK(-)GAS viability under kanamycin – luminescence, BacTiterGlo, confirmation, counter-screen for streptokinase expression inhibitor project, dose response (AID 1900); format: functional, organism-based
Streptokinase A = target: T4, Streptokinase A (Streptococcus pyogenes serotype M1, UniProt P10520); assay: viability-normalized secreted streptokinase activity reduction – plasminogen activation absorbance, OD405, dose response (AID 1914); format: functional, Streptococcus pyogenes M1 GAS;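 further: secreted streptokinase activity via plasminogen activation per viability signal from cell pellet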
T4 sequence (P10520 whole entry): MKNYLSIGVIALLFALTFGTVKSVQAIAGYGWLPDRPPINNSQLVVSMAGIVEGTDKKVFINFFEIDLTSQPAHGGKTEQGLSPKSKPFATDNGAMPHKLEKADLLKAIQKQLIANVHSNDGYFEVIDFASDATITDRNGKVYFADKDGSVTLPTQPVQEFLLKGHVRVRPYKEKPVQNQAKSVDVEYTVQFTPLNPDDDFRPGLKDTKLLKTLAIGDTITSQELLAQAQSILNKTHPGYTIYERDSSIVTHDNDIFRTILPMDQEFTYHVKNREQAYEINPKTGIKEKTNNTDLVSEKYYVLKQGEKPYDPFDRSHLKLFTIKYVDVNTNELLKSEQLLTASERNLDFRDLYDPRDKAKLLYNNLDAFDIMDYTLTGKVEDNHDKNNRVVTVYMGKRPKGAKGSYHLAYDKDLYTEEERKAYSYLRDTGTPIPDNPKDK

[9] = target: T5, Heat shock factor protein 1 (Mus musculus, UniProt P38532); assay: decrease of HSF1-responsive luciferase luminescence – cell-based, NIH3T3, dose retest, confirmation (AID 2382); format: functional;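 further: NIH3T3 fibroblasts with HSF1-driven luciferase reporter stressed by proteasome inhibitor MG132; luminescence from HSF1-driven luciferase expression after 8 hours of MG132 stress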
T5 sequence (P38532 whole entry): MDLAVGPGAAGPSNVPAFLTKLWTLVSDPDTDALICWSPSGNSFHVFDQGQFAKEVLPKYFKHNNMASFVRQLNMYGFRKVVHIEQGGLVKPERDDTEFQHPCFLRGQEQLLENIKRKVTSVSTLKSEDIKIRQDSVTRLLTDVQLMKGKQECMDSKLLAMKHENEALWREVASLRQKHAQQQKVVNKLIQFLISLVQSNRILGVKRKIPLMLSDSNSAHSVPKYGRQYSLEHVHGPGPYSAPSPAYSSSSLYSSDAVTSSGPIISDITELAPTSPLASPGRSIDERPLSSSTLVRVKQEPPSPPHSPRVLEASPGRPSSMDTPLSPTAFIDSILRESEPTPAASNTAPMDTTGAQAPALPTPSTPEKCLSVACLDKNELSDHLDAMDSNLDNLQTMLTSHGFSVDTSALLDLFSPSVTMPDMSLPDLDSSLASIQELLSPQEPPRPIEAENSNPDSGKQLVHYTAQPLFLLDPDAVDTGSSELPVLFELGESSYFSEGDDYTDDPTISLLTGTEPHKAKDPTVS

[10] = target: FAD-linked sulfhydryl oxidase ALR (Homo sapiens, UniProt P55789); assay: ALR-catalysed DTT oxidation blockers – biochemical, H2O2 detection, luminescence, cherry-pick, dose response (AID 493248)
[11] = target: T6, Rac GTPase-activating protein 1 (Homo sapiens, UniProt Q9H0H5); assay: blockers of MgcRacGAP-driven Rac1 GTP hydrolysis – biochemical, ADP Hunter fluorescence, primary and confirmatory, confirmation (AID 624330); format: functional
T6 sequence (Q9H0H5 whole entry): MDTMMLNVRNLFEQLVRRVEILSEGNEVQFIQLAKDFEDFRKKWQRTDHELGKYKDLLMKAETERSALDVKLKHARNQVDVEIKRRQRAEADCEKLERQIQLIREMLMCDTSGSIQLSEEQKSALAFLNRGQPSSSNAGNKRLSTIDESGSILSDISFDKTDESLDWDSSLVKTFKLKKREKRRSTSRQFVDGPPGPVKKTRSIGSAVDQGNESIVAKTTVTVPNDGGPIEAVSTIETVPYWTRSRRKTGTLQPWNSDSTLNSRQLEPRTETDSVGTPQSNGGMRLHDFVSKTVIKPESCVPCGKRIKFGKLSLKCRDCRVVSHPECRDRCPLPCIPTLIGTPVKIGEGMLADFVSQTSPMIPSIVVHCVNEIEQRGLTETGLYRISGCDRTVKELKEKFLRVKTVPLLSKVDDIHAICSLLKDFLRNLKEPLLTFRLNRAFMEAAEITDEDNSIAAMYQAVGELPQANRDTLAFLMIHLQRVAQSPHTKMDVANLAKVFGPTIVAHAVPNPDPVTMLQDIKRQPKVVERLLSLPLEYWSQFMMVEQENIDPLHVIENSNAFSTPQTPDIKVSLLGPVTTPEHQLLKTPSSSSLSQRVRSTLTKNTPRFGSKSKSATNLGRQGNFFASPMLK

[12] = blockade of melanocortin 4 receptor signaling – cell-based, plate reader, cherry pick, counter-screen for LGR2 antagonist project, dose response (AID 743444); format: functional;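 further: transfected HEK 293 cells stimulated with alpha-MSH peptide; potency of inhibitors of the alpha-MSH evoked signal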
[13] = blockers of bursicon-stimulated LGR2 cAMP reporter – cell-based, HEK293, CRE-luciferase reporter, cherry pick, set 2, dose response (AID 743343); format: functional;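 further: transfected cells were stimulated with diluted bursicon conditioned medium after compound addition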
[14] = intracellular Trypanosoma cruzi inhibitors in host cells – cell-based, plate reader, cherry-pick samples, set 3, dose response (AID 651818); format: functional;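 further: compounds incubated with infected cells for about four days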

T1 sequence (P11940 whole entry, the tested form may be a part): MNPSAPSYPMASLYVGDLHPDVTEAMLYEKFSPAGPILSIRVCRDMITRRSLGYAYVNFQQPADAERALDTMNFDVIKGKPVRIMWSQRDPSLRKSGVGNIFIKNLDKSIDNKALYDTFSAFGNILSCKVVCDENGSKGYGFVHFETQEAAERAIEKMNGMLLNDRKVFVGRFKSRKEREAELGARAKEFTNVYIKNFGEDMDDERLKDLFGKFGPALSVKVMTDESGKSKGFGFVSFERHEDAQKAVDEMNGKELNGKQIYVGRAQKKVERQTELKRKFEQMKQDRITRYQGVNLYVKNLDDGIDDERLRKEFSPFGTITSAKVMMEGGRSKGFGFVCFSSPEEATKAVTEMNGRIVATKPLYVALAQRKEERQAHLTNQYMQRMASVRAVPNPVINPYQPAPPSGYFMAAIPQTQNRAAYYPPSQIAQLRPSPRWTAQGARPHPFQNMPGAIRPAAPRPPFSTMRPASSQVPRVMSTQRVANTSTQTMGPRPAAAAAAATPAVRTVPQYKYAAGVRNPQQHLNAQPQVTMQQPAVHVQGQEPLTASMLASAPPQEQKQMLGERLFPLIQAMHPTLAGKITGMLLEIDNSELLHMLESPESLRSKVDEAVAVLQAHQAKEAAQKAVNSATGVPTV
Voltage-dependent T-type calcium channel subunit alpha-1H, sequence (O95180 whole entry): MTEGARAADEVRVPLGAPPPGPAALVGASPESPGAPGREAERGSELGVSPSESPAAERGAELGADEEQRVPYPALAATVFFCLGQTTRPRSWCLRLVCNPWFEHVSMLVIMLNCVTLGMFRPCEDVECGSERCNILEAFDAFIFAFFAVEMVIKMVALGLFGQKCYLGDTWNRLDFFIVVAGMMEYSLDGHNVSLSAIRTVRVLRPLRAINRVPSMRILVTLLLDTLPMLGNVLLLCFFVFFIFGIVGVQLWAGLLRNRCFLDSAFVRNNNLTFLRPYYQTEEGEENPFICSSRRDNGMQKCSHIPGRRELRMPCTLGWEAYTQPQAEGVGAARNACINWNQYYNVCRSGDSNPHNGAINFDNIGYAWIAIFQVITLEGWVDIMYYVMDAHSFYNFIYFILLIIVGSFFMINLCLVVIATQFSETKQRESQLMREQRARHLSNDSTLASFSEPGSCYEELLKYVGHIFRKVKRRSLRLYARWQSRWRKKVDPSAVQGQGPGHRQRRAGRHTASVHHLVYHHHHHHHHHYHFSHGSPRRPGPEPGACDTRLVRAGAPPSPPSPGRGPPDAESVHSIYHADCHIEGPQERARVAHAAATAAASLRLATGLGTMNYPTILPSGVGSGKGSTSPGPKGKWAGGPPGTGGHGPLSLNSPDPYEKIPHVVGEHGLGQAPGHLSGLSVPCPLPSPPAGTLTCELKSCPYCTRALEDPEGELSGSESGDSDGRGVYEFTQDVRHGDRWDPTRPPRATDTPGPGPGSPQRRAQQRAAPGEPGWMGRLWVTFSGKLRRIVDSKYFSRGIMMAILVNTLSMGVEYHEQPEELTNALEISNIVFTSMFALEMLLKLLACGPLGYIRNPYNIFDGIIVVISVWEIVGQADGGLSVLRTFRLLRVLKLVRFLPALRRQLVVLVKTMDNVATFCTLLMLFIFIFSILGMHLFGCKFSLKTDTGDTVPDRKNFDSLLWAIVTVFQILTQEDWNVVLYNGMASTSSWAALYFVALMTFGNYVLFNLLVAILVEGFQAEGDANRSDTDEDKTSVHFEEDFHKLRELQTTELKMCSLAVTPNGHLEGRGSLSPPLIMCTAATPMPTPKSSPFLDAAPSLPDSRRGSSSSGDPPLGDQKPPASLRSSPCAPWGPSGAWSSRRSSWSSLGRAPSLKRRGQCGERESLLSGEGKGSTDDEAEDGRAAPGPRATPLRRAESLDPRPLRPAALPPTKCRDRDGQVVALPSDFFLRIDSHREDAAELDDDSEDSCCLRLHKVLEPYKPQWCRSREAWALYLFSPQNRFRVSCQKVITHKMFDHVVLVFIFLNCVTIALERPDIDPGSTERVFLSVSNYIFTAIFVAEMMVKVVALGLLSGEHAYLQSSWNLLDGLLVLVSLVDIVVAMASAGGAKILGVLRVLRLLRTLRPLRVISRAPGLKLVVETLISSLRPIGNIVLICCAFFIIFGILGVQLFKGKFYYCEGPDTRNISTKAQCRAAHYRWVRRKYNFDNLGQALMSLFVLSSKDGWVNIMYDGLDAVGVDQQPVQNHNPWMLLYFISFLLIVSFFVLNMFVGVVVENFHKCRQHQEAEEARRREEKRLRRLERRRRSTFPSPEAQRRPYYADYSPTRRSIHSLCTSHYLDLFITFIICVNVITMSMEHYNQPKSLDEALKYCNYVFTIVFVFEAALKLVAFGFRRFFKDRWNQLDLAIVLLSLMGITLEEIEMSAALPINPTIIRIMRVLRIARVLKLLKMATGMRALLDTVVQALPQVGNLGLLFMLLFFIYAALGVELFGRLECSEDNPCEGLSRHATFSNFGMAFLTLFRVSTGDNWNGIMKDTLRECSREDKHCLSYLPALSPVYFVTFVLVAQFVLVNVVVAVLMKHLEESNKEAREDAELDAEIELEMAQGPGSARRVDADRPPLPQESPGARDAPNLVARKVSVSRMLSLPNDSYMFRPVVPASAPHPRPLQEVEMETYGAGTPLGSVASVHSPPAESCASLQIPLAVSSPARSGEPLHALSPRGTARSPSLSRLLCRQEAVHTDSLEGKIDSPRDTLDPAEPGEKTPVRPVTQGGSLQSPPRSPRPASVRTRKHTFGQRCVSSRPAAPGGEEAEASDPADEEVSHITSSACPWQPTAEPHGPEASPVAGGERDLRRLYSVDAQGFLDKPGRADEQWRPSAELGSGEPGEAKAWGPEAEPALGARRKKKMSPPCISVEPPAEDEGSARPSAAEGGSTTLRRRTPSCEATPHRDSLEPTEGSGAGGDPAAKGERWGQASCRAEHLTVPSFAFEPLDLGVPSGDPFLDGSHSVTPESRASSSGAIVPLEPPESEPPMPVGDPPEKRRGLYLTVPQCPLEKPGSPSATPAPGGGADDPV
Cytochrome P450 2D6, sequence (P10635 whole entry): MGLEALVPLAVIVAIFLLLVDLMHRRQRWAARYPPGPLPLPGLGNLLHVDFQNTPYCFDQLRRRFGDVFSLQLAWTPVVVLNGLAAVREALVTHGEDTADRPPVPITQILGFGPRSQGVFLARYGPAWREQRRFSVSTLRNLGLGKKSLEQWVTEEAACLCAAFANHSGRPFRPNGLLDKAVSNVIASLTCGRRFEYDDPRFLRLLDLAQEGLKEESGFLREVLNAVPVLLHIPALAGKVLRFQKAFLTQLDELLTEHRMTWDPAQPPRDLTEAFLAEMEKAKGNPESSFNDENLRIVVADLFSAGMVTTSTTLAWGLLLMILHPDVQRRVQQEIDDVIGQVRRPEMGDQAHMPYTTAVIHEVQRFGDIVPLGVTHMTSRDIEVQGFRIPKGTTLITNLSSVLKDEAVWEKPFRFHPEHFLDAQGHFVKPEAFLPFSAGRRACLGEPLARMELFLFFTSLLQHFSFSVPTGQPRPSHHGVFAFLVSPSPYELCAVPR
Cytochrome P450 2C9, sequence (P11712 whole entry): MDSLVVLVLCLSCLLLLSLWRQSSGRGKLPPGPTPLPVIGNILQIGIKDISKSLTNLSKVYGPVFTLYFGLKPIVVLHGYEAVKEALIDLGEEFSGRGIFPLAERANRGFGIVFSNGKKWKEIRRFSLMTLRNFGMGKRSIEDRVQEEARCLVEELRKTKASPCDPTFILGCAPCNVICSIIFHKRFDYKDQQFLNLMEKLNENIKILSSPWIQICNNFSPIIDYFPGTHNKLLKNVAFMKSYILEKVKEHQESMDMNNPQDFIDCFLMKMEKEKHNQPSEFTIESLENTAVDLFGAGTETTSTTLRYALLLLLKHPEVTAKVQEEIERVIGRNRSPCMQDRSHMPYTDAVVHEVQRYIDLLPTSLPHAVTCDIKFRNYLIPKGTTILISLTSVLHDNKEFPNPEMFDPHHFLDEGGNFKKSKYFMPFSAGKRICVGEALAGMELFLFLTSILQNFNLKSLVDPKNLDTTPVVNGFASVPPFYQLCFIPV
Cytochrome P450 3A4, sequence (P08684 whole entry): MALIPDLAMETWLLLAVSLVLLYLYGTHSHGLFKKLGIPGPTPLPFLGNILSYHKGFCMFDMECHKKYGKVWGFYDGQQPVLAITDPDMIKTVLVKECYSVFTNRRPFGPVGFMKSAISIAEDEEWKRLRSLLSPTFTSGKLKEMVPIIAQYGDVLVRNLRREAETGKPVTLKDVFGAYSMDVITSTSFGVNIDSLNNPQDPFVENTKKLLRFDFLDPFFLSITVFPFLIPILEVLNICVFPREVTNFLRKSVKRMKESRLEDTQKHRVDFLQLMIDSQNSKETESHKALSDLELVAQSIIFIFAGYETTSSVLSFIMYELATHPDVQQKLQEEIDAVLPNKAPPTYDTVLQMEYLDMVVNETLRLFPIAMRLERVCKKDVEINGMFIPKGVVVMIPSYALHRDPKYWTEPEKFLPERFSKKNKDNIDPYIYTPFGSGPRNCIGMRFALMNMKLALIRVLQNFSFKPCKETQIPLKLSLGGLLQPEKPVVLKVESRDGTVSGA
FAD-linked sulfhydryl oxidase ALR, sequence (P55789 whole entry): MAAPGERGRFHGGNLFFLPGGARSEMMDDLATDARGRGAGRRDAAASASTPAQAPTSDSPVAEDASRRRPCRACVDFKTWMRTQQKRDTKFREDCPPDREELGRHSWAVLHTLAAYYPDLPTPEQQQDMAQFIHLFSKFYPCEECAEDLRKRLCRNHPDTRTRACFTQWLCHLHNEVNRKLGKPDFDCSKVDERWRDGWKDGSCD

CC1CN(C(=O)N2c3ccccc3Sc3ccccc32)C(C)CC1=O (stereo not given)
EC50 [1]: 8.31 µM (active)

CC1(c2ccc3noc(-c4ccc(F)cc4)c3c2)OCCO1
IC50 [2]: > 66 µM (inactive) | IC50 [3]: 19.3 µM (active)

Cc1ccc(-c2noc(CN(C(=O)CCCCCN3C(=O)c4ccccc4C3=O)C(C)C)n2)cc1
EC50 [1]: 7.53 µM (active) | IC50 [4]: 5.93 µM (not active)

[O-][S+](Cc1cc(Oc2ccccc2)nc(-c2ccccc2)n1)c1ccccc1 (stereo not given)
AC50 (Cytochrome P450 2C9): 3.98 µM (inconclusive) | AC50 (Cytochrome P450 2D6): 1.26 µM (inconclusive) | AC50 (Cytochrome P450 3A4): 28.2 µM (inconclusive) | EC50 [1]: 7.24 µM (active)

Cn1cccc1Cc1nnc(SCC(=O)Nc2ccc(F)cc2)n1-c1ccc(F)cc1
EC50 [1]: 2.17 µM (active)

CCS(=O)(=O)n1nc(NCc2cccc(OC)c2)nc1NCc1cccc(OC)c1
EC50 [1]: 8.18 µM (active)

CN1Cc2c(N3CCOCC3)nc(SCc3ccccc3)c(C#N)c2CC1(C)C
EC50 [5]: > 60 µM (not active) | IC50 [2]: > 66 µM (inactive) | IC50 [3]: > 66 µM (inactive) | EC50 [6]: 0.62 µM (active) | EC50 [7]: > 53 µM (inactive)

COc1ccc(NC(=S)N=Nc2c(O)[nH]c3ccccc23)cc1
IC50 [2]: > 66 µM (inactive) | IC50 [3]: > 66 µM (inactive) | EC50 (Streptococcus): 14.1 µM (active) | EC50 [8]: 2.34 µM (active) | EC50 (Streptokinase A): > 150 µM (not active)

Cc1cc(C)c(S(=O)(=O)Nc2ccc(N(C)C)cc2)c(C)c1-n1cnnn1
EC50 [9]: > 195 µM (not active) | AC50 [10]: 0.197 µM (active) | IC50 [11]: 41.6 µM (active)

O=c1[nH]c2cc3c(cc2cc1CN(CCCO)Cc1nnnn1Cc1ccc(F)cc1)OCO3
AC50 (Cytochrome P450 2C9): 11.2 µM (inconclusive) | AC50 (Cytochrome P450 2D6): 12.6 µM (inconclusive) | IC50 [2]: > 66 µM (inactive) | IC50 [3]: > 66 µM (inactive)

COc1cccc(/C=C2\SC(=S)N(c3cccnc3)C2=O)c1OC
IC50 [2]: > 66 µM (inactive) | IC50 [3]: > 66 µM (inactive)

Cn1cccc1Cc1nnc(SCC(=O)Nc2cccc(F)c2)n1-c1ccc(F)cc1
EC50 [1]: 3.35 µM (active)

CCCC(=O)N1CCCC(c2cc(C(=O)Nc3ccccc3)no2)C1 (stereo not given)
AC50 [12]: 2.37 µM (active) | AC50 [13]: 1.89 µM (active)

O=C(N/N=C/c1cc(I)cc(I)c1O)c1ccccc1O
AC50 [14]: 3.17 µM (active)

C[C@@H]1CN([C@H](C)CO)C(=O)Cc2cc(NC(=O)Nc3ccc(C(F)(F)F)cc3)ccc2O[C@@H]1CN(C)Cc1ccccc1
AC50 [14]: 1.94 µM (active)

C[C@H]1CN([C@@H](C)CO)C(=O)c2cc(NC(=O)Nc3ccc(C(F)(F)F)cc3)ccc2O[C@H]1CN(C)Cc1ccc(Oc2ccccc2)cc1
AC50 [14]: 3.42 µM (active)

C[C@H](CO)N1C[C@H](C)[C@H](CN(C)Cc2ccc(Cl)c(Cl)c2)Oc2ccc(NC(=O)Nc3ccc4c(c3)OCO4)cc2CC1=O
AC50 [14]: 6.16 µM (active)

C[C@@H]1CN([C@H](C)CO)C(=O)c2cccc(NC(=O)Nc3ccccc3)c2O[C@H]1CN(C)Cc1ccc(C(=O)Nc2ccccc2N)cc1
AC50 [14]: 2.02 µM (active)

Cc1noc(C)c1NC(=O)Nc1cccc2c1O[C@H](CN(C)Cc1ccc(C(=O)Nc3ccccc3N)cc1)[C@@H](C)CN([C@@H](C)CO)C2=O
AC50 [14]: 3.76 µM (active)

C[C@@H]1CN([C@@H](C)CO)C(=O)c2cccc(NC(=O)C3CCCCC3)c2O[C@H]1CN(C)Cc1ccc(Oc2ccccc2)cc1
AC50 [14]: 1.71 µM (active)

Cc1ccc(S(=O)(=O)Nc2ccc3c(c2)CC(=O)N([C@H](C)CO)C[C@@H](C)[C@H](CN(C)Cc2ccc(Cl)c(Cl)c2)O3)cc1
AC50 [14]: 2.04 µM (active)

O=C(NC12CC3CC(CC(C3)C1)C2)c1cnccn1
IC50 [2]: 43.3 µM (inactive) | IC50 [3]: 38.7 µM (inactive)

C[C@@H]1CN([C@@H](C)CO)C(=O)c2cc(NS(=O)(=O)c3ccc(F)cc3)ccc2O[C@H]1CN(C)Cc1ccc(-c2ccccc2)cc1
AC50 [12]: 20.9 µM (active) | AC50 [13]: 45.7 µM (active)
